In article PMC2593902, “Regulation of cyclic AMP response-element binding-protein (CREB) by Gq/11-protein-coupled receptors in human SH-SY5Y neuroblastoma cells” (Biochemical Pharmacology, 2008):

Target: T1, M3 muscarinic acetylcholine (mACh) receptor (Homo sapiens, UniProt P20309)
T1 construct: gene CHRM3
Test: Fura-2 Ca2+ mobilization in SH-SY5Y cells endogenously expressing the receptor (also Ins([…])P3 and phospho-CREB)
Format: cell-based

T1 sequence (P20309 whole entry): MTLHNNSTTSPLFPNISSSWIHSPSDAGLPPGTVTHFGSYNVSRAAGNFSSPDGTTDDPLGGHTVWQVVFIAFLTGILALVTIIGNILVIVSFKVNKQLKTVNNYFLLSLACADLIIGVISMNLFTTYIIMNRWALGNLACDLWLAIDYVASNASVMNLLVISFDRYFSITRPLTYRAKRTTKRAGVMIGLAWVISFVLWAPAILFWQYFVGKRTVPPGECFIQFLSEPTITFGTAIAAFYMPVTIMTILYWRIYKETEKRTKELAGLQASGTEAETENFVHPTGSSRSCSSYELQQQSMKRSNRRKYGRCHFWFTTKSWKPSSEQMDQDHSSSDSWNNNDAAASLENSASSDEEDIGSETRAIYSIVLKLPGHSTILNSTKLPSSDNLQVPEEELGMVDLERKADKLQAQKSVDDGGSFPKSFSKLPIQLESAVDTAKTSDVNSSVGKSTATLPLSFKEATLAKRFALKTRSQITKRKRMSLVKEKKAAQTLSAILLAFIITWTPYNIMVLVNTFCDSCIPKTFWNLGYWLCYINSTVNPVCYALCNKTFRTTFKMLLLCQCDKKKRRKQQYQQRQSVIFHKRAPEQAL

With `CC(=O)OC(C)C[N+](C)(C)C` (stereo not shown) [MCh, methacholine] the EC50 was 0.8 µM.
